Data: publication PMC12621043, “Un-LOK-ing a New Approach for Conformational Selective Targeting of STK10 (LOK)” (ACS Medicinal Chemistry Letters, 2025)

Legend:
Experiment in all cases: DSF Tm panel
Format in all cases: binding
Conditions in all cases: 10 μM compound
STK3 (STK3A) = molecular target: T1, STK3 (STK3A) (Homo sapiens, UniProt Q13188)
T1 construct: purchased in-house DSF kinase panel (SGC-style construct names; the trailing letter is the construct ID)
T1 sequence (Q13188 16-313): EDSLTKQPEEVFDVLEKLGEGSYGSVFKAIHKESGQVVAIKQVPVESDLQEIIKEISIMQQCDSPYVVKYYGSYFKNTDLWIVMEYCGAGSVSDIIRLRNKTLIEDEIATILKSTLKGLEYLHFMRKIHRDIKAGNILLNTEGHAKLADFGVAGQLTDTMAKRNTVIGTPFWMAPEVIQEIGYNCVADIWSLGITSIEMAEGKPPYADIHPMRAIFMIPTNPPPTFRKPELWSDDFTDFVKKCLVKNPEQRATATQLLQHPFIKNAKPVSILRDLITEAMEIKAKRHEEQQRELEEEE

CAMK1DA = molecular target: T2, CAMK1DA (Homo sapiens, UniProt Q8IU85)
T2 construct: purchased in-house DSF kinase panel (SGC-style construct names; the trailing letter is the construct ID)
Method: (§1) The synthesized urea-based derivatives were evaluated in a panel of kinases by differential scanning fluorescence (DSF) to investigate their selectivity profile. A positive ΔT m in the DSF assay indicates stabilization of the protein upon ligand binding in comparison to its apo state, with higher thermal shifts generally correlating with stronger binding. For this purpose, we used our internal kinase selectivity panel (∼90 kinases) along with staurosporine as a positive control. […] This was also reflected in the overall low selectivity score (S) throughout the series, which is determined by the ratio between the number of kinases that are stabilized above 5 °C and the total number of kinases tested (Figure ). Motivated by these findings, we further validated the entire series by orthogonal binding and activity assays to determine the in vitro and cellular potency and selectivity of the developed series in comparison to the selected reference compounds. […]
(§2) was performed as previously described.[1,2] Briefly, recombinant protein kinase domains at a concentration of 2 μM were mixed with 10 μM compound in a buffer containing 20 mM HEPES, […]
(§3) probe (1 µl per mL). Subsequently, temperature-dependent protein unfolding profiles were […]
(§4) emission filters were set to 465 nm and 590 nm, respectively. The temperature was raised with a step rate of 3 °C per minute. […]
(§5) inflection point of the transition curve. […]
(§6) previously.[3] In brief, STK10, STK3, STK4 and SLK were obtained as plasmids cloned in […]
(§7) Plasmids were transfected into
(§8) KD concentration taken from TracerDB (tracerdb.org)[4] were pipetted into white 384-well

CHEK2A = molecular target: T3, CHEK2A (Homo sapiens, UniProt O96017)
T3 construct: purchased in-house DSF kinase panel (SGC-style construct names; the trailing letter is the construct ID)
Method: as §1, §2, §3, §4, §5, §6, §7, §8

CLK3A = molecular target: T4, CLK3A (Homo sapiens, UniProt P49761)
T4 construct: purchased in-house DSF kinase panel (SGC-style construct names; the trailing letter is the construct ID)
Method: as §1, §2, §3, §4, §5, §6, §7, §8

EPHA5A = molecular target: T5, EPHA5A (Homo sapiens, UniProt P54756)
T5 construct: purchased in-house DSF kinase panel (SGC-style construct names; the trailing letter is the construct ID)
T5 sequence (P54756 653-939): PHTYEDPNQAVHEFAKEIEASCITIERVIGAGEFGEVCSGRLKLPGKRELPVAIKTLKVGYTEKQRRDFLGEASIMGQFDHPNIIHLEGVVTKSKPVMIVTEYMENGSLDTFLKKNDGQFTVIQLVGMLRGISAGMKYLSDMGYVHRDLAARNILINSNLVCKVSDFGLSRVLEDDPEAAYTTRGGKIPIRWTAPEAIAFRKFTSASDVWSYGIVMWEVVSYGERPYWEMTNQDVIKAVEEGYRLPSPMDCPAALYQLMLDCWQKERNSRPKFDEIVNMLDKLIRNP
Method: as §1, §2, §3, §4, §5, §6, §7, §8

K2A2 (CSNK2A2A) = molecular target: T6, K2A2 (CSNK2A2A) (Homo sapiens, UniProt P19784)
T6 construct: purchased in-house DSF kinase panel (SGC-style construct names; the trailing letter is the construct ID)
Method: as §1, §2, §3, §4, §5, §6, §7, §8

PAK4A = molecular target: T7, PAK4A (Homo sapiens, UniProt O96013)
T7 construct: purchased in-house DSF kinase panel (SGC-style construct names; the trailing letter is the construct ID)
Method: as §1, §2, §3, §4, §5, §6, §7, §8

PLK4A = molecular target: T8, PLK4A (Homo sapiens, UniProt O00444)
T8 construct: purchased in-house DSF kinase panel (SGC-style construct names; the trailing letter is the construct ID)
T8 sequence (O00444 2-275): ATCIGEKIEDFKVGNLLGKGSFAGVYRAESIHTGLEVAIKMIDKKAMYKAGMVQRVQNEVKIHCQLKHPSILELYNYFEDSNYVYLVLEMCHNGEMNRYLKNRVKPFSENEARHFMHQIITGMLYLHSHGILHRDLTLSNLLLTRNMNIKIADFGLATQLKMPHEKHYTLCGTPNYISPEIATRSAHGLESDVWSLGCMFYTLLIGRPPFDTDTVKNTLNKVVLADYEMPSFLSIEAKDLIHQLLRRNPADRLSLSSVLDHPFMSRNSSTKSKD
Method: as §1, §2, §3, §4, §5, §6, §7, §8

TAF1A = test system: TAF1A
Method: as §1, §2, §3, §4, §5, §6, §7, §8

PCTK1A = molecular target: T9, PCTK1A (Homo sapiens, UniProt Q00536)
T9 construct: purchased in-house DSF kinase panel (SGC-style construct names; the trailing letter is the construct ID)

PIM1 (PIM1A) = molecular target: T10, PIM1 (PIM1A) (Homo sapiens, UniProt P11309)
T10 construct: purchased in-house DSF kinase panel (SGC-style construct names; the trailing letter is the construct ID)

DMPK1A = molecular target: T11, DMPK1A (Homo sapiens, UniProt Q09013)
T11 construct: purchased in-house DSF kinase panel (SGC-style construct names; the trailing letter is the construct ID)
T11 sequence (Q09013 1-629): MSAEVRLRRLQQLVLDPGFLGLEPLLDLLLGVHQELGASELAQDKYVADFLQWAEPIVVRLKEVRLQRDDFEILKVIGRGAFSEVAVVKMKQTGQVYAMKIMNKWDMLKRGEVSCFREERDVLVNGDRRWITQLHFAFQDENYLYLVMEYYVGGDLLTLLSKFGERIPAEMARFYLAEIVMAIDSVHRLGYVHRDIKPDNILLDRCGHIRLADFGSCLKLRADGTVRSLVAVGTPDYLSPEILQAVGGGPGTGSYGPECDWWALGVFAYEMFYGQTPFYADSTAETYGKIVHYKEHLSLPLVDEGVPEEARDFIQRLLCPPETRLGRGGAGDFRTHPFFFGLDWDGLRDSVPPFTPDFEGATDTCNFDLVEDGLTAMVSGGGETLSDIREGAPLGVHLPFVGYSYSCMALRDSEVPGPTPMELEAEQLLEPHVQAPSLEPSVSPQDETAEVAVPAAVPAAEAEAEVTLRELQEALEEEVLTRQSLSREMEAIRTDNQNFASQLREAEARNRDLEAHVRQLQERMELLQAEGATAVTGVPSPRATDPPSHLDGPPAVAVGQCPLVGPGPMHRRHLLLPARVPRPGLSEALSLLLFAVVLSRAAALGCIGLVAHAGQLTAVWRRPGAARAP

MAPK10A = molecular target: T12, MAPK10A (Homo sapiens, UniProt P53779)
T12 construct: purchased in-house DSF kinase panel (SGC-style construct names; the trailing letter is the construct ID)
T12 sequence (P53779 39-402): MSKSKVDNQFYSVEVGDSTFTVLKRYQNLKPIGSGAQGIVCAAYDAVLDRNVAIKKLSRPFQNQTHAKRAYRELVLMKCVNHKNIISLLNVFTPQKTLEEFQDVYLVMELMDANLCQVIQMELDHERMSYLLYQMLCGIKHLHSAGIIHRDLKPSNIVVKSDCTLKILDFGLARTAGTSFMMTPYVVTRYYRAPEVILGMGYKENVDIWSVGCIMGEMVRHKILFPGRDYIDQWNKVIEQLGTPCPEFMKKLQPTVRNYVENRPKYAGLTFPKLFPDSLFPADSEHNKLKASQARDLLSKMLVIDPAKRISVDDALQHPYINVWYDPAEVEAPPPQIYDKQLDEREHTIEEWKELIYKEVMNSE

T7 sequence (O96013 291-591): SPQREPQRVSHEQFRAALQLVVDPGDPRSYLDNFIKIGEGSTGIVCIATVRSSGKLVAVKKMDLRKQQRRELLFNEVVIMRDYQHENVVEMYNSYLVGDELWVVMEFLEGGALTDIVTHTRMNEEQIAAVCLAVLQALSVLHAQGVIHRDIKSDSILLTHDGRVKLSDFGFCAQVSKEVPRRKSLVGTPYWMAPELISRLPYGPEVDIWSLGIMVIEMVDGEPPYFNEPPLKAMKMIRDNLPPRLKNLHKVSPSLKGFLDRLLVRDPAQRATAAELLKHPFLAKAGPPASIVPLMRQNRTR
T6 sequence (P19784 whole entry): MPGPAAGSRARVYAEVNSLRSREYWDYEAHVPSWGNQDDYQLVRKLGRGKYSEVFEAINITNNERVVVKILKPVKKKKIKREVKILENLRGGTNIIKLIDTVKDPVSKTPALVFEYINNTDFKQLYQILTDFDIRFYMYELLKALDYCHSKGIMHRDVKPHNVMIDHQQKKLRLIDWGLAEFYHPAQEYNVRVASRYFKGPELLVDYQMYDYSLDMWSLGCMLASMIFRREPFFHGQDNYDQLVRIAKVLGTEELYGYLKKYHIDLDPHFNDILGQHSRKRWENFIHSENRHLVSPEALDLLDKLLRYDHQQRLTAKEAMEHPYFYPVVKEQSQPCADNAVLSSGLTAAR
T10 sequence (P11309 whole entry): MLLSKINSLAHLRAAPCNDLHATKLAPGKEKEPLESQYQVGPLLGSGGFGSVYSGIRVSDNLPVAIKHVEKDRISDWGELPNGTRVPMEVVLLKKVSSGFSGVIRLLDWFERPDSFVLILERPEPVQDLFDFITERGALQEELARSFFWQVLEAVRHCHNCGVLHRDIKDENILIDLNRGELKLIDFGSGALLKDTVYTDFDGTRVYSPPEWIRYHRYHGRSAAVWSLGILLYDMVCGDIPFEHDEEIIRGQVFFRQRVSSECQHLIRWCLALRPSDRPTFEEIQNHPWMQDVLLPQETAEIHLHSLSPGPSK
T4 sequence (P49761 127-484): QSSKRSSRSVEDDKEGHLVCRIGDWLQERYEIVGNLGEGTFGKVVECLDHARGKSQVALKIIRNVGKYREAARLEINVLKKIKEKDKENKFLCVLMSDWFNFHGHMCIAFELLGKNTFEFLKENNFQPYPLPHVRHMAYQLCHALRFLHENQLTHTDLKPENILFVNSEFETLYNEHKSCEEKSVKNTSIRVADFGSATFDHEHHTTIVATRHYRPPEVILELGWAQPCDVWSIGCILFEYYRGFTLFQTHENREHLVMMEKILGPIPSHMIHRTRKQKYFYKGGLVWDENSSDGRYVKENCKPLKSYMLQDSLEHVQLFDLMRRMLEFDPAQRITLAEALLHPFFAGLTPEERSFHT
T9 sequence (Q00536 163-478): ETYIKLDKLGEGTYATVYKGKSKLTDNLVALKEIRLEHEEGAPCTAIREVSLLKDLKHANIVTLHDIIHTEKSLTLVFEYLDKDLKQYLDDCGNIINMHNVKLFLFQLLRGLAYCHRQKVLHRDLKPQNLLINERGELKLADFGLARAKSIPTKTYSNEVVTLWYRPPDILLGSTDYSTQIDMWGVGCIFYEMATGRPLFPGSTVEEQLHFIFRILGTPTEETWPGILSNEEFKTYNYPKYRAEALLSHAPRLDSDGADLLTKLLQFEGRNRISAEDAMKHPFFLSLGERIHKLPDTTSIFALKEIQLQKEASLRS
T3 sequence (O96017 210-531): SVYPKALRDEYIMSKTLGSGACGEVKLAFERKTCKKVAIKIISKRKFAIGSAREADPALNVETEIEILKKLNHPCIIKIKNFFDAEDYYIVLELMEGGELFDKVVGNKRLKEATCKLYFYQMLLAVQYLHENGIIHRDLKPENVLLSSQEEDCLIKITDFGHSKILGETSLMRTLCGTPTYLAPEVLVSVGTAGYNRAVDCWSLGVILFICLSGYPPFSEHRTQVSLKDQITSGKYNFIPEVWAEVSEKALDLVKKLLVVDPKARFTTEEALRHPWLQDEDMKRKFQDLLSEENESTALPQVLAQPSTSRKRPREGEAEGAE
T2 sequence (Q8IU85 whole entry): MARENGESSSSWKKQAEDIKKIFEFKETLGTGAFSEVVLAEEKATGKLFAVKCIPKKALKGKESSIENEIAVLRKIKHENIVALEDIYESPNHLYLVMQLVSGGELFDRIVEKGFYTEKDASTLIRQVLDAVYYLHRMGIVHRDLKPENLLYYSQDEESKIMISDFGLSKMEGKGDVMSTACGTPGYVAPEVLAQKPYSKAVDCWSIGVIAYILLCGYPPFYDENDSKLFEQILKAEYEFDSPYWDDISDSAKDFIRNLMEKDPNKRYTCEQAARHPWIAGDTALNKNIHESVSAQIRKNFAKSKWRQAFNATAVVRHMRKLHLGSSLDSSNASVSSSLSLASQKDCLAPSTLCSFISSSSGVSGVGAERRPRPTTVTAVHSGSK

Row | Compound | ΔTm at 10 µM (STK3 (STK3A)) [°C] | ΔTm at 10 µM (CAMK1DA) [°C] | ΔTm at 10 µM (CHEK2A) [°C] | ΔTm at 10 µM (CLK3A) [°C] | ΔTm at 10 µM (EPHA5A) [°C] | ΔTm at 10 µM (K2A2 (CSNK2A2A)) [°C] | ΔTm at 10 µM (PAK4A) [°C] | ΔTm at 10 µM (PLK4A) [°C] | ΔTm TAF1A (TAF1A) | ΔTm at 10 µM (PCTK1A) [°C] | ΔTm at 10 µM (PIM1 (PIM1A)) [°C] | ΔTm at 10 µM (DMPK1A) [°C] | ΔTm at 10 µM (MAPK10A) [°C]
1 | Cc1ccc(F)cc1CNC(=O)Nc1ccc2cc1OCCOCCNc1ccn3ncc-2c3n1 [compound 26] | 4.1 | 1 | 7.2 | 0.1 | 1.1 | 0.9 | 1.8 | 3.3 | 0,1 °C | 1 | 1 | 0.3 | 0.5
2 | O=C(NCc1ccccc1C(F)(F)F)Nc1ccc2cc1OCCOCCNc1ccn3ncc-2c3n1 [compound 27] | 4.7 | 1.7 | 9.9 | 0.2 | 1.6 | 0.7 | 2.1 | 3.9 | 0,1 °C | 1.1 | 1.1 | 0.2 | 0.7
3 | O=C(NCc1ccc(C(F)(F)F)cc1)Nc1ccc2cc1OCCOCCNc1ccn3ncc-2c3n1 [compound 28] | 5.1 | 2.1 | 7.7 | 0.4 | 1.9 | 0.5 | 2.4 | 3.3 | 0,3 °C | 1 | 1 | 0.3 | 1.1
4 | COc1ccccc1CNC(=O)Nc1ccc2cc1OCCOCCNc1ccn3ncc-2c3n1 [compound 29] | 3.4 | 0.4 | 5.8 | 0.2 | 0.6 | 0.3 | 1.3 | 3 | 0,0 °C | 1 | 1 | 0.3 | 0.3
5 | COc1cccc(CNC(=O)Nc2ccc3cc2OCCOCCNc2ccn4ncc-3c4n2)c1 [compound 30] | 3.7 | 0.4 | 5.1 | 0.2 | 0.7 | 0.8 | 1.5 | 3.5 | -0,1 °C | 1.3 | 1 | 0.4 | 0.5
6 | COc1ccc(CNC(=O)Nc2ccc3cc2OCCOCCNc2ccn4ncc-3c4n2)cc1 [compound 31] | 4.4 | 1.2 | 7 | 0 | 1.2 | 2.5 | 1.7 | 4.9 | 0,0 °C | 1.9 | 2 | 1 | 0.7
7 | COc1ccc(CNC(=O)Nc2ccc3cc2OCCOCCNc2ccn4ncc-3c4n2)cc1F [compound 32] | 4.7 | 1.4 | 6.8 | 0.2 | 1.2 | 2.2 | 2 | 4.6 | 0,2 °C | 2 | 1.7 | 0.6 | 0.8
8 | COc1cc(CNC(=O)Nc2ccc3cc2OCCOCCNc2ccn4ncc-3c4n2)ccc1F [compound 33] | 3.9 | 1.1 | 6.5 | 0.5 | 1.4 | 1.7 | 2.2 | 5.5 | 0,1 °C | 1.7 | 1.6 | 0.7 | 0.7
9 | C[C@H](NC(=O)Nc1ccc2cc1OCCOCCNc1ccn3ncc-2c3n1)c1ccccc1 [compound 34] | 3.6 | 0.8 | 6.3 | 0 | 1 | 1.2 | 1.4 | 4.7 | -0,3 °C | 0.5 | 0.6 | 0 | 0.1
10 | CN1CCN(C(=O)Nc2ccc3cc2OCCOCCNc2ccn4ncc-3c4n2)CC1 [compound 35] | 3.3 | -1.2 | 0.8 | 0.7 | -0.5 | 3.6 | -0.3 | 3 | 0,1 °C | 1 | 2.4 | 0.2 | -0.7
